Experimental data reported in article PMC4652989, “A small-molecule inhibitor suppresses the tumor-associated mitochondrial NAD(P)^+-dependent malic enzyme (ME2) and induces cellular senescence” (Oncotarget, 2015).
Where two headings read alike, the source gives them in different places.

How the values were obtained:
[1] = biological target: T1, m-NAD(P)-ME Q51A/E90A (Homo sapiens, UniProt P23368, E90A/Q51A); assay: malic enzyme activity inhibition, dimer interface mutant; format: biochemical; conditions: Q51A/E90A pre-incubated with 40 μM EA
T1 construct: made in house; host or cells: Escherichia coli BL21
Description: (§1) The malic enzyme reaction was assayed in a reaction buffer containing 50 mM Tris-HCl (pH 7.4) with saturated concentrations of L-malate, NAD^+ or NADP^+ and MgCl2, with various concentrations of EA in a total volume of 1 ml at 30°C. The absorbance at 340 nm was continuously monitored in a UV/VIS spectrophotometer Lambda 25 (Perkin Elmer, MA, USA). In this process, one unit of enzyme was defined as the amount of enzyme that produces 1 μmol of NAD(P)H per min under the assay conditions. An absorption coefficient of 6.22 cm^−1mM^−1 for NAD(P)H was used in the calculations.
(§2) The inhibition experiments were conducted with a series of EA concentrations in a buffer containing 50 mM Tris-HCl (pH 7.4), 40 mM malate (pH 7.4), 10 mM MgCl2 and 2 mM NAD^+ (pH 7.4).

[2] = biological target: T2, m-NAD(P)-ME E59N (Homo sapiens, UniProt P23368, E59N); assay: malic enzyme activity inhibition, fumarate site mutant; format: biochemical; conditions: E59N pre-incubated with 40 μM EA
T2 construct: made in house; host or cells: Escherichia coli BL21
Description: as §1, §2

[3] = biological target: T3, m-NAD(P)-ME R91A (Homo sapiens, UniProt P23368, R91A); assay: as above; format: biochemical; conditions: R91A pre-incubated with 40 μM EA
T3 construct: made in house; host or cells: Escherichia coli BL21
Description: as §1, §2

[4] = tested on: H1299 cells; format: cell-based, human; conditions: for H1299 cell number / decrease of H1299 cell number compared with the control: 24 h; for H1299 cell growth, time course: within 48 h
Description: H1299 cells were grown in 90% Dulbecco's Modified Eagle Medium (DMEM) with 10% fetal bovine serum (FBS) (Gibco BRL, USA) at a temperature of 37°C in a humidified 5% CO2 environment. Cells were seeded in 6-well cell culture dishes in triplicate at a density of 1 × 10^5 cells/ml medium containing 10% FBS and treated with EA or siRNA at the indicated dosage. The cells were then counted, and cell numbers were determined at the indicated time points. The control shLuc and ME2 shRNA were purchased from the Nature RNAi Core Facility, Taipei, Taiwan (NRC). The shME2 was made using pLKO 005 (TRC2 vector). The target shRNA sequence for ME2 is 5′-[…]-3′, and the target shRNA sequence for luciferase is 5′-[…]-3′.

[5] = tested on: H1299 cells; assay: senescence-associated β-galactosidase (SA-β-gal) assay; format: cell-based, human
Description: Cells were washed in PBS, fixed for 4 min at room temperature in approximately 2 to 3% formaldehyde or 0.2% glutaraldehyde, washed, and then incubated at 37°C under no C0_2 conditions with fresh SA-β-Gal stain solution. Cells were stained with 5-bromo-4-chloro-3-indolyl β-D-galactoside (X-Gal) for 2 to 16 h and detected using the senescence-associated β-galactosidase (SA-β-gal) assay. The percentages of SA-β-gal^+ cells were calculated by the number of positively stained cells per 1,000 cells counted in random fields.

[6] = tested on: m-NAD(P)-ME protein expression in H1299 cells; assay: immunoblotting of m-NAD(P)-ME in H1299 cells; format: cell-based, human; conditions: various concentrations of EA, within 24 h, Western blot
Description: The supernatants were boiled in loading buffer, and an aliquot containing 100 μg of protein was separated by SDS-PAGE. After blotting, the PVDF membranes were incubated with anti-human m-NAD(P)-ME (ME2) (Sigma, St Louis, MO) and anti-β-actin antibodies (Santa Cruz) for 6 h, and membranes were then incubated for 1 h with the second antibody labeled with horseradish peroxidase. The antigen-antibody complexes were visualized using enhanced chemiluminescence (Amersham Pharmacia Biotech, USA).

[7] = tested on: m-NAD(P)-ME mRNA in H1299 cells; assay: RT-PCR of ME2 in H1299 cells; format: cell-based, human; conditions: EA for 12 h
Description: Total RNA was isolated from H1299 cells treated with shME2 or EA for 12 h by using a total RNA reagent (MDBio, Inc., Taiwan). One microgram of RNA was reverse transcribed into cDNA using MMLV reverse transcriptase (Epicentre Biotechnologies, USA). PCR was performed in the linear range (by 25 cycles) with primers specific for ME2 and actin. The primer sequences used to amplify the target genes were as follows: ME2 forward primer, 5′-[…]-3′; ME2 reverse primer, 5′-[…]-3′; actin forward primer, 5′-[…]-3′, and reverse primer, 5′-[…]-3′.

T3 sequence (P23368 19-584 R91A): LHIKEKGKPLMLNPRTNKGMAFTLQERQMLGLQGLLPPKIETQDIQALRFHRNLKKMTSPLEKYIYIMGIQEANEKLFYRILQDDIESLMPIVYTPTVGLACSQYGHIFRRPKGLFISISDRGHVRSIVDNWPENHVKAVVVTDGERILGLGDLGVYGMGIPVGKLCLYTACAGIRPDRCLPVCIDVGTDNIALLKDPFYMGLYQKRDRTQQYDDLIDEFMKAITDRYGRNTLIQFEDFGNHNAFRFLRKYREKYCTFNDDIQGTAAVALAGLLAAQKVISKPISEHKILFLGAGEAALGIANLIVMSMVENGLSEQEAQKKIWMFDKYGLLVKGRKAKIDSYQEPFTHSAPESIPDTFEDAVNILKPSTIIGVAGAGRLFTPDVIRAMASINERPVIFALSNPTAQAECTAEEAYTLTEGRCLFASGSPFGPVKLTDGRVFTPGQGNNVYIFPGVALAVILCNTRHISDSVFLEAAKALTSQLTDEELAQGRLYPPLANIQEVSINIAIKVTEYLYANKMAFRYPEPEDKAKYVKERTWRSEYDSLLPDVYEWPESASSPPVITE
T2 sequence (P23368 19-584 E59N): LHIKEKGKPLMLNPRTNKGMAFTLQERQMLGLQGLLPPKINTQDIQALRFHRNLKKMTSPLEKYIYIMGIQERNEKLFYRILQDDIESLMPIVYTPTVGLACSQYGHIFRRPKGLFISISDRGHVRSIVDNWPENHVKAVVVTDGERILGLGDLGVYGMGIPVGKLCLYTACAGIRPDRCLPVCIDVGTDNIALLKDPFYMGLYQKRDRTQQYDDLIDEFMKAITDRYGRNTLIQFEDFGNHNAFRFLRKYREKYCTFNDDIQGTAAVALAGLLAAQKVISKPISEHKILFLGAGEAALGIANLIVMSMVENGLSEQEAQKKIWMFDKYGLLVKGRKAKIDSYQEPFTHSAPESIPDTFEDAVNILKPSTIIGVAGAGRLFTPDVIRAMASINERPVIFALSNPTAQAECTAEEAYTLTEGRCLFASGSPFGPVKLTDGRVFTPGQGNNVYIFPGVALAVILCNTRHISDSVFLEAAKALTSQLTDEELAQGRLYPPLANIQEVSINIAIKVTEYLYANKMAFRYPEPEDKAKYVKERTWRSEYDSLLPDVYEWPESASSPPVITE
T1 sequence (P23368 19-584 Q51A/E90A): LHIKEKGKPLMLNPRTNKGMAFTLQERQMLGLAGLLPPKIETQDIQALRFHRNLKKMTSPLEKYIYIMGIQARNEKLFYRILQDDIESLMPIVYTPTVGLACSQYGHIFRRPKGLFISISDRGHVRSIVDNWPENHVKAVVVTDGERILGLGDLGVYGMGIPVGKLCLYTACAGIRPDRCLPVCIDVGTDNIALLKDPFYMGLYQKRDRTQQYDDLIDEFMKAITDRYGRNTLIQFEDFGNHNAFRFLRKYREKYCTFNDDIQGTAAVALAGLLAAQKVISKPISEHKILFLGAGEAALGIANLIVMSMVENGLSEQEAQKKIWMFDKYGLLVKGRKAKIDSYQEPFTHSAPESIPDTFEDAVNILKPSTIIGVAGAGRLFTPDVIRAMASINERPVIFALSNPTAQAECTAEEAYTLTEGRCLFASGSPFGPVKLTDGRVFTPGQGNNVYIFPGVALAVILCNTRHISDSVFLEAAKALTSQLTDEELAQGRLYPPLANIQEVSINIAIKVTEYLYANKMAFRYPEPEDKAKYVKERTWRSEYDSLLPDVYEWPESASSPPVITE

Row | SMILES | restoration of EA-inhibited enzyme activity by fumarate [1] | restoration of EA-inhibited enzyme activity by fumarate [2] | restoration of EA-inhibited enzyme activity by fumarate [3] | H1299 cell number ([4]; 5 nM EA) | H1299 cell number ([4]; 10 nM EA) | decrease of H1299 cell number compared with the control ([4]; 100 nM EA) [%] | decrease of H1299 cell number compared with the control ([4]; 1 μM EA) [%] | H1299 cell growth, time course ([4]; 1 μM EA) | decrease of H1299 cell number compared with the control ([4]; 10 μM EA) [%] | H1299 cell growth, time course ([4]; 10 μM EA, vs 1 μM) | number of SA-β-gal+ H1299 cells ([5]; 1 μM EA, 0-72 h) | EA-induced H1299 cell senescence ([5]; 10 μM EA, within 72 h, vs 1 μM) | amount of senescence after 10 μM EA relative to 1 μM EA ([5]; time course 0-72 h, SA-β-gal+ cells) [fold] | protein expression of m-NAD(P)-ME in H1299 cells [6] | mRNA synthesis of m-NAD(P)-ME in H1299 cells [7]
1 | O=C(O)/C=C/C(=O)O [fumarate] | could not be restored | could not be restored | could not be restored |  |  |  |  |  |  |  |  |  |  |  | 
2 | O=C(O)c1cc2ccccc2c(Cc2c(O)c(C(=O)O)cc3ccccc23)c1O [Embonic acid, embonic acid] |  |  |  | did not decrease | did not decrease | 23 | 30 | inhibited H1299 cell growth | 40 | more pronounced | increased in a time-dependent manner | more prominent | 2 | not influenced | not influenced
